The structures appear in SMILES notation. Where two headings read alike, the source gives them in different places.

The source of these data is publication PMC9695592, “Phenotypic Evaluation of Nucleoside Analogues against Trypanosoma cruzi Infection: In Vitro and In Vivo Approaches” (Molecules, 2022).

For experiment [1], the system named is promastigotes of Cas9^ΔNT1. Put plainly: Resazurin-based assay on Cas9^ΔNT1 promastigotes. The format is cell-based, Leishmania mexicana. As for the experimental part:
(§1) Bloodstream trypomastigotes of the Y strain (DTU II) were obtained by cardiac puncture of infected Swiss Webster mice on the parasitemia peak to perform drug sensitivity assays. Trypomastigote forms of the Tulahuen-β gal strain were collected from the supernatant of previously infected L929 cell cultures (host/parasite cell ratio 10:1). The intracellular forms T. cruzi were studied by the infection of L929 and H9C2 (2D and 3D) cell cultures infected for 48 and 24 h with trypomastigotes of Tulahuen-β gal and Y strains, respectively. The Leishmania mexicana-Cas9 T7 strain (LmexCas9) was derived from L. mexicana WT promastigotes by expression of the Streptococcus pyogenes Cas9 nuclease gene ‘Cas9′ and maintained on 32 μg/mL hygromycin [51]. This strain and the derived strains Cas9^ΔNT1 and Cas9^ΔNT1+TcrNT2 were cultured in HOMEM medium supplemented with 10% of FBS and 1% Penicillin-Streptomycin antibiotic in unvented flasks at 25 °C [52]. The Cas9^ΔNT1 strain is identical to Cas9 except that the LmexNT1.1/NT1.2 locus encoding the L. mexicana adenosine/ pyrimidine transporters was excised using Cas9 [17, 40]. Cas9^ΔNT1+TcrNT2 is the further modification of that strain by the expression of the T. cruzi nucleoside transporter 2 (TcrNT2) gene in it, using the vector pNUS-HcN [53]. Appropriate antibiotics were added for the selection and maintenance of transfectants.
(§2) The EC50 values for nucleoside analogues against Leishmania mexicana promastigotes of the Cas9, Cas9^ΔNT1 and Cas9^ΔNT1+TcrNT2 strains used a resazurin-based assay, as described. Briefly, the assays were performed in standard HOMEM medium and culture conditions, in white opaque 96-well plates. For each test compound (stored as a 40 mM stock solution in 100% DMSO at −20 °C), a doubling dilution was performed over 2 rows of the plate, keeping the last well free as no-drug control with HOMEM only (23 doubling dilutions; highest concentration 100 µM). To each well, 100 µL of HOMEM containing 2 × 10^5 cells of the appropriate L. mexicana line was added, and the plates incubated for 72 h at 25 °C, followed by the addition of 20 µL of resazurin solution and further incubation for 48 h. Fluorescence was read on a FLUOstar OPTIMA plate reader (BMG Labtech, Germany), at an excitation wavelength of 544 nm and an emission wavelength of 620 nm. The EC50 values were determined by the GraphPad Prism 8.0 software using an equation for a sigmoid curve with variable slope. Pentamidine was used as positive control, and every experiment was independently performed at least 3 times independently.

The test system of experiment [2] is promastigotes of Lmex^ΔNT1+TcrNT2. As to the kind of experiment: Resazurin-based assay on Cas9^ΔNT1+TcrNT2 promastigotes. As to conditions: for EC50: Leishmania mexicana, read-out: Lmex^ΔNT1+TcrNT2 EC50 (μM). The format is cell-based, Leishmania mexicana. As to the method:
as §1, §2
On the technique in general: The colour change of resazurin is a common sign of viable cells or microbes.

For experiment [3], the system named is promastigotes of LmexCas9. Put plainly: Resazurin-based assay on LmexCas9 promastigotes. The format is cell-based, Leishmania mexicana. As to the method:
as §1, §2

For experiment [4], the system named is intracellular forms of T. cruzi (Y strain) in 3D H9C2. As to the kind of experiment: Activity against T. cruzi (Y strain) infection of H9C2 spheroids (3D). Format: cell-based, Trypanosoma cruzi. As to conditions: 10 µM, seven days of incubation, 95% confidence interval in brackets.
Source text: (§3) L929 cell lines were used to evaluate the effect of the nucleoside derivatives on the cellular viability of mammalian host cells and to assess their activity against intracellular forms of T. cruzi (Tulahuen strain expressing E. coli β-galactosidase gene, DTU VI) as reported. 2D and 3D culture systems of rat cardiomyoblast cell lines (H9C2(2-1)) were used to evaluate cardiotoxicity and to test the derivatives’ activity on intracellular forms (Y strain, DTU II). In all assays, the cell cultures were maintained at 37 °C under an atmosphere of 5% CO2.
as §1
3D cultures of H9C2 cells were obtained as described, and 24 h after plating, the spheroids were infected (or not, control) with bloodstream trypomastigotes of T. cruzi (strain Y), using 20 parasites per host cell. After 24 h, infected spheroids were incubated with 10 µM of the tested compounds for seven days, and then the spheroids were transferred one by one to an Eppendorf tube, with the aid of a pestle they were mechanically macerated following an established protocol with minor adaptations. The parasite load was quantified by light microscopy and qPCR [54], and the results were expressed as % of parasite death. The data results from two independent experiments performed in at least duplicate.

In experiment [5] the test system is intracellular forms of T. cruzi (Tulahuen strain). As to the kind of experiment: Activity against intracellular forms of T. cruzi (Tulahuen-β gal strain) in L929 cultures, CPRG readout. As to conditions: Trypanosoma cruzi, 168 h; Tulahuen strain in L929, seven days of compound incubation; 95% confidence interval in brackets. Format: cell-based.
Source text: as §3, §1
In an initial step, nucleoside derivatives were assayed against intracellular forms of Tulahuen-β gal strain in L929 cell lines. Assays were performed in sterile 96-well microtiter plates with 4 × 10^3 cells/well and 4 × 10^4 parasites/well (host/parasite cell ratio 1:10). After the establishment of infection (48 h), increasing concentrations (up to 30 µM) of the compounds were added, and the cultures maintained at 37 °C for seven days. Untreated-infected controls represented 100% growth. Parasite burden was analyzed by adding the substrate CPRG (chlorophenol red ß-D-galactopyranoside) followed by measurements (spectrophotometrically) at 570 nm. The results were expressed as percentage of reduction in parasite growth compared to untreated cells, and EC50 values were calculated. Bz was used as a positive control. To investigate the effect of the compounds against intracellular forms of the Y strain, rat cardiomyoblasts (2D cultures of H9C2) were seeded in 24-well plates and, after 24 h of platting, were infected with bloodstream trypomastigotes (20 parasites per host cell). After 24 h of interaction, the infected cultures were rinsed to remove non-internalized parasites and incubated with 10 µM of the tested compounds. After seven days of treatment, the cultures were fixed, stained with Giemsa, and 200 cells were quantified by light microscopy. The results were expressed as % of reduction in parasite burden. The data results from two independent experiments performed in at least duplicate were obtained.

For experiment [6], the system named is intracellular forms of T. cruzi. Also on record: method as in PMID 20428688. As to conditions: read-out: EC90 value of Bz against the intracellular forms of T. cruzi; cited from earlier work.
[7] abbreviates: Leishmania mexicana, read-out: Cas9^ΔNT1 EC50 (μM), promastigotes, resazurin-based assay, highest concentration 100 µM.
Where [8] appears, read: Leishmania mexicana, read-out: Cas9 EC50 (μM), promastigotes, resazurin-based assay, highest concentration 100 µM.

Broadly, the EC90 is the concentration at which the effect reaches the 90% level. `Nc1ncnc2c1c(-c1ccc(Cl)c(F)c1)cn2[C@@H]1O[C@H](CO)[C@@H](O)[C@H]1O` [FH10714, 7-(3-fluoro,4-chlorophenyl)tubercidin]: the EC50 in experiment [1] (setting [7]) is more than 100 µM; in experiment [2], more than 100 µM; in experiment [3] (setting [8]) it was more than 100 µM; in experiment [5], 0.47 µM. Also, the “% of Death Rate by Light Microscopy Quantification 3D” value in experiment [4] was 93.5 (93.46 to 93.54) %. Moreover, the “% of Death Rate by qPCR 3D” value in experiment [4] was 67 (38 to 96) %. It took 6.19 µM to reach the 90% level in experiment [5] (EC90).
Take `Nc1ncnc2c1c(-c1ccc(F)c(F)c1)cn2[C@@H]1O[C@H](CO)[C@@H](O)[C@H]1O` [FH11706, 7-(3,4-Difluorophenyl)tubercidin]: in experiment [1] (setting [7]), the EC50 is more than 100 µM. The EC50 in experiment [3] (setting [8]) is more than 100 µM. In experiment [4], the “% of Death Rate by Light Microscopy Quantification 3D” value is reported as 91.6 (86.2 to 97) % and the “% of Death Rate by qPCR 3D” value was 85 (79 to 91) %. In experiment [5], the EC50 was found to be 1.11 µM and the EC90 is more than 30 µM.
With `O=C(Cn1ccnc1[N+](=O)[O-])NCc1ccccc1` [Bz, Benznidazole, reference compound], the concentration for an effect of 90% (EC90) in experiment [6] is 10 µM. In addition, in experiment [4], the “% of Death Rate by Light Microscopy Quantification 3D” value is reported as 98.4 (98.1 to 98.7) % and the “% of Death Rate by qPCR 3D” value is 100%. In experiment [5], this molecule displayed an EC50 of 1.97 µM and an EC90 of 5.54 µM.
Consider `Nc1ncnc2c1c(-c1ccc(Cl)c(Cl)c1)cn2[C@@H]1O[C@H](CO)C[C@H]1O` [FH8513, 7-(3,4-dichlorophenyl)-3′-deoxytubercidin], for which the EC50 in experiment [1] (setting [7]) is approximately 100 µM; in experiment [1] (read-out: Cas9^ΔNT1 EC50, promastigotes, resazurin-based assay, highest concentration 100 µM) it was 100.5 ± 0.9 µM; in experiment [2], 31.1 ± 0.5 µM; in experiment [3] (setting [8]), approximately 100 µM; in experiment [3] (read-out: Cas9 EC50, promastigotes, resazurin-based assay, highest concentration 100 µM), more than 100 µM; in experiment [5] it was 0.2 µM. Also, the “Lmex^ΔNT1+TcrNT2 Sensitization (fold)” value in experiment [2] (ratio of the EC50 values of the Cas9^ΔNT1 and Cas9^ΔNT1+TcrNT2 strains) came to 3.2 fold. Also, the “% of Death Rate by Light Microscopy Quantification 3D” value in experiment [4] is on record as 83.8 (67.5 to 100) %. The “% of Death Rate by qPCR 3D” value in experiment [4] was 94 (90 to 98) %. Besides, the EC90 in experiment [5] came to 1.61 µM.
